Test results as given in patent publication US20090258836A1, “EFFECTIVE DELIVERY OF CROSS-SPECIES A3 ADENOSINE-RECEPTOR ANTAGONISTS TO REDUCE INTRAOCULAR PRESSURE” (The Trustees of The University of Pennsylvania, priority 2006, published 2009).
pKi: −log10 of the molar value. Entries after “also recorded” stand apart in the source; their conditions may differ.

Tests used:
human A2A receptors = human A2A receptors (Homo sapiens, UniProt P29274); conditions: literature; read-out: Ki for the binding to human A2A receptors; cited from earlier work
[1] = system: HCE (human ciliary epithelial) cell line, NPE cells; test: Cell volume in isosmotic solution (isosmotic shrinkage), Coulter Counter; format: cell-based
Procedure: Cell Culture The HCE (human ciliary epithelial) cell line (Carre et al., supra, 1997) is an immortalized NPE cell line obtained from primary cultures of adult human epithelium. […] Eye Res. 57:3057-3063 (1993); Yantorno et al., Exp. Eye Res. 49:423-437 (1989)). […] Cells were passaged every 6-7 days and were studied 8-13 days after passage, after reaching confluence. An immortalized PE-cell line from a primary culture of bovine pigmented ciliary epithelium were also grown under matching conditions. Measurement of Cell Volume in Isosmotic Solution: The volume of PE and NPE cells was measured, since the movement of fluid underlies a change in PE and NPE cell volume, respectively. This is also thought to be the same as the movement of fluid which underlines the secretion of aqueous humor (FIG. 1). […] Parallel aliquots of cells were studied on the same day. One aliquot usually served as a control, and the others were exposed to different experimental conditions at the time of suspension. The same amount of solvent vehicle (dimethylformamide, DMSO or ethanol) was always added to the control and experimental aliquots. […] Cell volumes of isosmotic suspensions were measured with a Coulter Counter (model ZBI-Channelyzer II), using a 100 μm aperture (Civan et al., supra, 1994). As previously described (Wax et al., supra, 1993), the cell volume (vC) of the suspension was taken as the peak of the distribution function. Cell shrinkage was fit as a function of time (t) to a monoexpenential function: […]^0^)/τ] {1) where v∞ is the steady-state cell volume, v0 is the cell volume at the first point (t0) of the time course to be fit, and τ is the time constant of the shrinkage. For purposes of data reduction, the data were normalized to the first time point, taken to be 100% isotonic volume. Fits were obtained by nonlinear least-squares regression analysis, permitting both v∞ and τ to be variables. […] Med. Chem. 37:636-646 (1994; Jacobson et al., supra, 1995; Jacobson et al., FEBS Lett. 336:57-60 (1993)).

mouse IOP [2] = test: Mouse IOP after topical application, non-invasive pneumotonometry; format: in vivo, Black Swiss mice; conditions: for Δ(IOP) Pneumotonometer: topical droplets 200 nM (1% DMSO), 30 min
Procedure: (§1) The test animals were black Swiss outbred mice of mixed sex, 7-9 weeks old and 25-30 g in weight, obtained from Taconic Inc. (Germantown, N.Y.), and maintained under 12:12-h light/dark illumination cycle and allowed unrestricted access to food and water. Mice were anesthetized with intraperitoneal ketamine ([…]) supplemented by topical proparacaine HCl 0.5% (Allergan, Bausch & Lomb) for the IOP measurements. IOP was measured invasively (SNMS) and non-invasively by pneumotonometry in separate animals.
By comparison, IOP was measured non-invasively by pneumotonometry (OBT) (Avila et al., supra, 2005). As previously described, the commercially available tip of the ocular blood tomography (OBT) pneumotonometer (Blood Flow Analyzer [BFA] probe tip; Paradigm Medical Industries Inc.) was fit to a custom-built mount. Air flow from a constant pressure source was passed through the mount to reach a diaphragm forming the end of the BFA tip. The flow of air displaces the diaphragm outward, permitting escape of the air through holes in the wall of the probe tip into the atmosphere. Pressure was monitored with a transducer connected through a T-connection to the base of the BFA tip. The probe assembly was advanced to the cornea with a three-axis micromanipulator. The probe tip was advanced sufficiently to make contact with the tear film, as was indicated by a shift in the baseline output reading. In a refined method, the tip was withdrawn until the […] was visually displaced from the tear film. The output was then adjusted to zero before advancing the tip again. Contact with the cornea depresses the diaphragm of the BFA tip, occluding access of the air flow to the escape holes and raising the pressure at the base of the tip.
This approach was simplified to expedite identification of the endpoint, and the probe was subsequently advanced in about 10 standardized steps of approximately […] at intervals of about 10 seconds to identify the inflection region (Wang et al., supra, 2006). […] The pneumotonometric estimates of IOP were previously found to agree with manometric measurements in cannulated preparations and with estimates obtained by the servo-null technique (Avila et al., supra, 2005). Having established the baseline value of IOP, the position along the axis of advance of the micromanipulator was noted, and the probe was retracted from contact with the cornea. Subsequent measurements of IOP at later time points were obtained by advancing the probe tip to the same position, with the placement of the mouse maintained stereotactically. The measurements were conducted at 10-min intervals to avoid potential artifacts associated with prolonged pressure on the cornea.
(§2) Ketamine HCl was purchased from Phoenix Pharmaceutical Inc. (St. Joseph, Mo.). Other drugs were obtained from Sigma Chemical (St. Louis, Mo.). Drugs were applied topically with an Eppendorf pipette. […] The final droplet solution contained the drugs at the stated concentrations together with <2% DMSO and 0.0005% benzalkonium chloride at an osmolality of 295-300 mOsm. DMSO was omitted, altogether, from droplets containing the hydrophilic compounds adenosine, carbachol and carboxyfluorescein.
(§3) Effects on invasively-measured IOP were measured 10 min after topical application because after this time, the continued presence of the micropipette can be associated with a downward drift of the IOP, even under control conditions. In contrast, smaller droplets ([…]) were applied to the eye more frequently (three times instead of once) with the non-invasive technique, in order to forestall drying of the eye associated with the airflow from the pneumotonometer. With the non-invasive protocol, the IOP was stable for 30 min under control conditions.
In Table 1, an endpoint of 10 minutes was used for the invasive measurements in light of the above-discussed downward drift of the IOP, even under control conditions. […]

mouse IOP [3] = test: Mouse IOP after topical application, invasive servo-null micropipette system (SNMS); format: in vivo, Black Swiss mice
Procedure: as §1
By the SNMS approach (Avila et al., supra, 2001), the exploring micropipette, of […] outer diameter, was filled with a highly conducting solution and advanced across the cornea into the anterior chamber. A refined technique by Wang et al., Invest. Opthalmol. Vis. Sci. (serial online) (Aug. 31, 2006) available at www.iovs.org/egi/letters/46/9/3274#422, enhanced stability and reduce the background noise of the records, permitting fabrication of micropipettes whose resistance is 0.1-0.3 MΩ, rather than the 0.25-0.4 MΩ used initially. The filling solution was reduced from 3M KCl to 2M NaCl, rather than 3 M KCl. The resistance of the filled micropipette was balanced in a bridge circuit, and the tip was then advanced across the cornea. Upon entering the anterior chamber of the eye, the IOP forces the much lower-conducting aqueous humor into the micropipette tip, displacing the original filling solution. The micropipette resistance was thereby increased, unbalancing the bridge circuit and triggering a bellows to provide a counter-pressure, restoring the position of the filling solution and returning the resistance to its initial value. Thus, the value of the counter-pressure equals the IOP. As in the past (Avila et al., supra, 2001), the stability of the records permitted continuous measurements for tens of minutes during the course of drug applications.
as §2, §3
In Table 1, an endpoint of 10 minutes was used for the invasive measurements in light of the above-discussed downward drift of the IOP, even under control conditions. Also the need for smaller, more frequent droplets are discussed above with regard to the non-invasive technique using the pneumotonometer. As above, with the non-invasive protocol, the IOP was stable for 30 minutes under control conditions.

mouse IOP [4] = test: Mouse IOP monitored with SNMS, protocols of Yang et al. 2005; format: in vivo
Procedure: Pharmacol. 65:1675-1684 (2003)), is effective both in blocking adenosine-triggered shrinkage of cultured human NPE cells and in lowering IOP of mice (Yang et al., supra, 2005). MRS-1292 was tested on the mouse for two reasons. Transgenic mice provide a convenient opportunity for studying the molecular physiology and pharmacology in the living animal ([…] al., supra, 2003). Second, measurement of IOP permitted us to assess the effects of MRS-1292 on the target parameter. […] Therefore, to directly assess the effect of MRS-1292 in vivo in the mouse, IOP was monitored before and after drug application. IOP was monitored with the Servo-Null-Micropipette System (SNMS). The test protocols are described in detail by Yang et al. supra, 2005, herein incorporated by reference. […] In comparison, addition of the same volume of saline at the same osmolality produced no significant change in IOP (-0.3±1.2 mmHg, n=6, p>0.8) 14 min later. […] To estimate an approximate range, “penetrance” was defined by Yang et al. as the ratio of the published Ki value at receptors in vitro to the minimally effective droplet concentration, for a number of adenosine agonists and antagonists. Thus, penetrance ranges from 1:100 to 1:1000 for purinergic drugs that have been tested in the mouse, and it is not very different from the drug penetrance of 1:100 for agents applied topically to rabbits and primates. This rule of thumb also applies to acylguanidine blockers and bumetanide, whose topical effects have also been studied in the mouse eye. Thus, the approximately 1:1000 penetrance that Yang et al. reported in the 2003 citation for MRS 1292 in the present experiments is consistent with past studies

cultured human NPE cells = conditions: cited from earlier work
pupil size = test: Pupil diameter after topical carbachol with or without corneal impalement; format: in vivo, mouse
Procedure: as §1
To measure pupil diameter, the pupil and an adjacent ruler having 1-mm graticules were imaged with a digital camera. Care was taken to avoid applying mechanical stress, and consequently to avoid displacing the micropipette tip from its position in the anterior chamber. Lengths were measured by IMAGE J (National Institutes of Health) and the pupil diameters were calibrated to the ruler.
Pupillary diameter was measured before and 10 min after topical addition of […] containing 40 mM ([…]) of the miotic carbachol to both eyes of the mouse. One eye was not punctured; the other eye was impaled with the SNMS micropipette. Either the right or left eye of each mouse was chosen randomly for impalement. At so low a topical concentration and in the absence of a micropipette, exposure to carbachol for 10 min had no significant effect on pupillary size. The baseline diameter was 1.80±0.11, and was insignificantly changed by carbachol application, increasing by 0.12±0.17 mm (n=6, P>0.4).

Sequence of human A2A receptors (P29274 whole entry): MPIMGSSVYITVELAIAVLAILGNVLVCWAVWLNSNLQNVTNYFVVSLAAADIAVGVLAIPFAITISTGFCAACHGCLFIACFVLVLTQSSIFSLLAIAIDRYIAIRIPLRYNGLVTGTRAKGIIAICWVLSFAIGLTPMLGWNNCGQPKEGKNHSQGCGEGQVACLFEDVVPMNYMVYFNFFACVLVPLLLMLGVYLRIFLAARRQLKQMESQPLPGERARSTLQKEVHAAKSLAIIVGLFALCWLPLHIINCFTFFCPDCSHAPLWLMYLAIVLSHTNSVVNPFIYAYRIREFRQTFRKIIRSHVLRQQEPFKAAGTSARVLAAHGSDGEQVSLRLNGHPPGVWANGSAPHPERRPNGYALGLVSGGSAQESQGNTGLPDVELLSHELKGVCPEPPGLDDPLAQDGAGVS

3-ethyl 5-benzyl-2-methyl-6-phenyl-4-styryl-1,4-(±)-dihydropyridine-3,5-dicarboxylate [MRS-1097]
pKi (human A2A receptors): 5.32

CCNC(=O)[C@H]1O[C@@H](n2cnc3c(N)nc(NCCc4ccc(CCC(=O)O)cc4)nc32)[C@H](O)[C@@H]1O [CGS-21680]
effect of agonist on isosmotic volume of NPE cells ([1]; agonist 100 nM): exerted no effect; also recorded: no detectable effect
effect of agonist on isosmotic volume of NPE cells ([1]; agonist 3 μM): triggered isosmotic shrinkage; also recorded: did trigger isosmotic shrinkage

OC[C@H]1O[C@@H](n2cnc3c(NC4CCCC4)ncnc32)[C@H](O)[C@@H]1O [CPA, N^6-cyclopentyladenosine]
effect of agonist on isosmotic volume of NPE cells ([1]; 30 nM and 1 μM (data not shown, N=3)): no significant shrinkage
effect of agonist on isosmotic volume of NPE cells ([1]; agonist 100 nM): had little effect; also recorded: small slow effect of uncertain significance
effect of agonist on isosmotic volume of NPE cells ([1]; agonist 3 μM): none at all; also recorded: no significant shrinkage

CNC(=O)[C@H]1O[C@@H](n2cnc3c(NCc4cccc(I)c4)nc(Cl)nc32)[C@H](O)[C@@H]1O [Cl-IB-MECA]
effect on mouse IOP measured non-invasively (in words) (mouse IOP [2]; pneumotonometry, topical, MRS-3833 at 200 nM): produced no significant increase in IOP
Δ(IOP) Pneumotonometer (mouse IOP [2]): +0.7 ± 1.4 mm Hg
increase in IOP over baseline (mouse IOP [3]; SNMS, after 10 min, adenosine 10 mM, Cl-IB-MECA 200 nM droplet): 10.0±2.9 mmHg
Δ(IOP) Servo-Null (mouse IOP [3]; topical droplet 200 nM (1% DMSO), endpoint 10 min): +10.0 ± 2.9 mm Hg
shrinkage of HCE cells ([1]; in the presence of gramicidin, concentration not given): produced shrinkage of HCE cells

O=C1NCCC12O[C@@H](n1cnc3c(NCc4cccc(I)c4)ncnc31)[C@H](O)[C@@H]2O (stereo partly drawn) [MRS-1292]
time of maximum reduction in IOP, mean (mouse IOP [4]; 25 μM): 15 ± 1 min
maximum reduction in IOP (mouse IOP [4]; droplets containing 25 μM): 4.4±0.8 mm Hg
time constant (τ) of the adenosine-triggered shrinkage in the presence of MRS-1292 (cultured human NPE cells; 10 μM adenosine plus MRS-1292): 11.7 ± 2.6 min
Δv∞ steady-state shrinkage (cultured human NPE cells; 10 μM adenosine, 2 min pretreatment with MRS-1292, gramicidin, 60 min study): 1.9±0.2%

CCOC(=O)c1c(CC)c(C(=O)SCC)c(CC)[n+](C)c1-c1ccccc1.[I-] [MRS-1649, 2,4-diethyl-1-methyl-3-(ethylsulfanylcarbonyl)-5-ethyloxycarbonyl-6-phenylpyridium iodide]
effect on IOP in the mouse (in words) (mouse IOP [3]; tested by the inventors, technique not given): found to lower IOP in the mouse

CCC(=O)O[C@@H]1[C@H](OC(=O)CC)[C@@H](C(=O)NC)O[C@H]1n1cnc2c(NCc3cccc(I)c3)nc(Cl)nc21 [MRS-3823]
Δ(IOP) Pneumotonometer (mouse IOP [2]): +0.2 ± 0.8 mm Hg

C[N+](C)(C)CCOC(N)=O [carbachol]
effect on pupil size (pupil size; 4 mM droplet, with or without corneal impalement (n=2)): had no effect on pupil size
reduction of the pupil diameter (pupil size; 40 mM droplet, 10 min, cornea impaled with micropipette): 38%
contraction of the pupil diameter (pupil size; 40 mM droplet, 10 min, cornea impaled, baseline 2.00±0.15 mm): 0.76±0.09 mm
change (increase) of pupil diameter (pupil size; 40 mM droplet, 10 min, eye not punctured, baseline 1.80±0.11): 0.12±0.17 mm
